Legend:
MDA-MB-435 = test: Growth inhibition of human MDA-MB-435 cells after 48 hrs by sulforhodamine B assay; assay type: functional, cell-based; details: MDA-MB-435, 48 h
IGROV-1 = test: Growth inhibition of human IGROV1 cells after 48 hrs by sulforhodamine B assay; assay type: functional; details: IGROV-1, 48 h
BT-549 = test: Growth inhibition of human BT549 cells after 48 hrs by sulforhodamine B assay; assay type: functional; details: BT-549, 48 h
M14 = test: Growth inhibition of human M14 cells assessed as cell growth at 10 uM after 48 hrs by sulforhodamine B assay; assay type: functional; details: M14, 48 h, read-out: Activity
DU-145 = test: Growth inhibition of human DU145 cells assessed as cell growth at 10 uM after 48 hrs by sulforhodamine B assay; assay type: functional; details: DU-145, 48 h, read-out: Activity
U-251 = test: Growth inhibition of human U251 cells assessed as cell growth at 10 uM after 48 hrs by sulforhodamine B assay; assay type: functional; details: U-251, 48 h, read-out: Activity
NCI-H23 = test: Growth inhibition of human NCI-H23 cells assessed as cell growth at 10 uM after 48 hrs by sulforhodamine B assay; assay type: functional; details: NCI-H23, 48 h, read-out: Activity
UACC-257 = test: Growth inhibition of human UACC257 cells after 48 hrs by sulforhodamine B assay; assay type: functional; details: UACC-257, 48 h
KM12 = test: Growth inhibition of human KM12 cells after 48 hrs by sulforhodamine B assay; assay type: functional, cell-based; details: KM12, 48 h
K562 = test: Growth inhibition of human K562 cells assessed as cell growth at 10 uM after 48 hrs by sulforhodamine B assay; assay type: functional; details: K562, 48 h, read-out: Activity
NCI-H322M = test: Growth inhibition of human NCI-H322M cells after 48 hrs by sulforhodamine B assay; assay type: functional
OVCAR-5 [1] = test: Growth inhibition of human OVCAR5 cells after 48 hrs by sulforhodamine B assay; assay type: functional; details: OVCAR-5, 48 h
SF-295 = test: Growth inhibition of human SF295 cells after 48 hrs by sulforhodamine B assay; assay type: functional, cell-based; details: SF-295, 48 h
MDA-MB-231 [2] = test: Growth inhibition of human MDA-MB-231 cells after 48 hrs by sulforhodamine B assay; assay type: functional; details: MDA-MB-231, 48 h
SK-MEL-2 = test: Growth inhibition of human SK-MEL-2 cells after 48 hrs by sulforhodamine B assay; assay type: functional; details: SK-MEL-2, 48 h
T47D = test: Growth inhibition of human T47D cells assessed as cell growth at 10 uM after 48 hrs by sulforhodamine B assay; assay type: functional; details: read-out: Activity
HL-60(TB) = test: Growth inhibition of human HL-60(TB) cells after 48 hrs by sulforhodamine B assay; assay type: functional; details: HL-60, 48 h
HOP-62 = test: Growth inhibition of human HOP62 cells assessed as cell growth at 10 uM after 48 hrs by sulforhodamine B assay; assay type: functional; details: HOP-62, 48 h, read-out: Activity
SW-620 = test: Growth inhibition of human SW620 cells assessed as cell growth at 10 uM after 48 hrs by sulforhodamine B assay; assay type: functional; details: SW-620, 48 h, read-out: Activity
CCRF-CEM = test: Growth inhibition of human CCRF-CEM cells after 48 hrs by sulforhodamine B assay; assay type: functional
[3] = Growth inhibition of human NCI-ADR-RES cells after 48 hrs by sulforhodamine B assay; assay type: functional
SF-268 = test: Growth inhibition of human SF268 cells assessed as cell growth at 10 uM after 48 hrs by sulforhodamine B assay; assay type: functional; details: SF-268, 48 h, read-out: Activity
PC-3 = test: Growth inhibition of human PC3 cells after 48 hrs by sulforhodamine B assay; assay type: functional, cell-based; details: PC-3, 48 h
RPMI-8226 = test: Growth inhibition of human RPMI8226 cells assessed as cell growth at 10 uM after 48 hrs by sulforhodamine B assay; assay type: functional; details: RPMI-8226, 48 h, read-out: Activity
COLO 205 = test: Growth inhibition of human COLO205 cells assessed as cell growth at 10 uM after 48 hrs by sulforhodamine B assay; assay type: functional; details: COLO 205, 48 h, read-out: Activity
MDA-MB-231 [4] = test: Growth inhibition of human MDA-MB-231 cells assessed as cell growth at 10 uM after 48 hrs by sulforhodamine B assay; assay type: functional; details: MDA-MB-231, 48 h, read-out: Activity
SK-MEL-28 = test: Growth inhibition of human SK-MEL-28 cells assessed as cell growth at 10 uM after 48 hrs by sulforhodamine B assay; assay type: functional; details: SK-MEL-28, 48 h, read-out: Activity
OVCAR-5 [5] = test: Growth inhibition of human OVCAR5 cells assessed as cell growth at 10 uM after 48 hrs by sulforhodamine B assay; assay type: functional; details: OVCAR-5, 48 h, read-out: Activity
MOLT-4 = test: Growth inhibition of human MOLT4 cells after 48 hrs by sulforhodamine B assay; assay type: functional; details: MOLT-4, 48 h
RXF 393 = test: Growth inhibition of human RXF393 cells after 48 hrs by sulforhodamine B assay; assay type: functional; details: RXF 393, 48 h
[6] = Growth inhibition of human Hs 578T cells after 48 hrs by sulforhodamine B assay; assay type: functional
NCI-H460 = test: Growth inhibition of human NCI-H460 cells after 48 hrs by sulforhodamine B assay; assay type: functional; details: NCI-H460, 48 h
MCF7 = test: Growth inhibition of human MCF7 cells after 48 hrs by sulforhodamine B assay; assay type: functional; details: MCF7, 48 h
[7] = read-out: LC50 (the source's name)

Question: Which GI50 (MDA-MB-435) does the source give for `COc1cc(-c2nn(-c3cccc(NC(=O)Nc4cc(C(F)(F)F)cc(C(F)(F)F)c4)c3)cc2-c2ccncc2)ccc1Cl` here?
Answer: 0.886 µM

Question: And the IC50 (MDA-MB-435)?
Answer: 0.89 µM

Question: And the TGI (MDA-MB-435)?
Answer: 1.99 µM

Question: What about the CC50 (MDA-MB-435; [7]) of the same compound?
Answer: 4.46 µM

Question: And the GI50 (IGROV-1)?
Answer: 0.826 µM

Question: And the LC50 (concentration killing 50% of cells) (IGROV-1)?
Answer: 23.7 µM

Question: What about the TGI (IGROV-1) of the same compound?
Answer: 2.19 µM

Question: What about the GI50 (BT-549) of the same compound?
Answer: 1.21 µM

Question: And the LC50 (50% lethal concentration) (BT-549)?
Answer: 29.6 µM

Question: What about the TGI (BT-549) of the same compound?
Answer: 3.06 µM

Question: And the growth at 10 µM (M14)?
Answer: -42.1%

Question: And the growth at 10 µM (DU-145)?
Answer: 3.89%

Question: And the growth at 10 µM (U-251)?
Answer: -81.8%

Question: What about the growth at 10 µM (NCI-H23) of the same compound?
Answer: -3.3%

Question: What about the GI50 (UACC-257) of the same compound?
Answer: 0.916 µM

Question: And the TGI (UACC-257)?
Answer: 2.35 µM

Question: And the CC50 (UACC-257; [7])?
Answer: 26.2 µM

Question: What about the GI50 (KM12) of the same compound?
Answer: 0.531 µM

Question: And the IC50 (KM12)?
Answer: 0.53 µM

Question: And the TGI (KM12)?
Answer: 1.34 µM

Question: What about the CC50 (KM12; [7]) of the same compound?
Answer: 3.39 µM

Question: What about the growth at 10 µM (K562) of the same compound?
Answer: -10.7%

Question: What about the GI50 (NCI-H322M) of the same compound?
Answer: 1.02 µM

Question: What about the TGI (NCI-H322M) of the same compound?
Answer: 3 µM

Question: And the CC50 (NCI-H322M; [7])?
Answer: 29.9 µM

Question: What about the GI50 (OVCAR-5 [1]) of the same compound?
Answer: 0.937 µM

Question: And the LC50 (concentration killing 50% of cells) (OVCAR-5 [1])?
Answer: 12 µM

Question: What about the TGI (OVCAR-5 [1]) of the same compound?
Answer: 2.47 µM

Question: What about the GI50 (SF-295) of the same compound?
Answer: 0.399 µM

Question: What about the IC50 (SF-295) of the same compound?
Answer: 0.4 µM

Question: And the TGI (SF-295)?
Answer: 1.23 µM

Question: And the CC50 (SF-295; [7])?
Answer: 3.31 µM

Question: What about the GI50 (MDA-MB-231 [2]) of the same compound?
Answer: 0.664 µM

Question: What about the LC50 (MDA-MB-231 [2]) of the same compound?
Answer: 3 µM

Question: What about the TGI (MDA-MB-231 [2]) of the same compound?
Answer: 1.41 µM

Question: And the GI50 (SK-MEL-2)?
Answer: 1.02 µM

Question: And the LC50 (50% lethal concentration) (SK-MEL-2)?
Answer: 3.71 µM

Question: What about the TGI (SK-MEL-2) of the same compound?
Answer: 1.95 µM

Question: And the growth at 10 µM (T47D)?
Answer: 4.45%

Question: What about the GI50 (HL-60(TB)) of the same compound?
Answer: 1.18 µM

Question: What about the TGI (HL-60(TB)) of the same compound?
Answer: > 50 µM

Question: And the CC50 (HL-60(TB); [7])?
Answer: > 50 µM

Question: And the growth at 10 µM (HOP-62)?
Answer: -77.6%

Question: What about the growth at 10 µM (SW-620) of the same compound?
Answer: -2.89%

Question: What about the GI50 (CCRF-CEM) of the same compound?
Answer: 0.498 µM

Question: What about the LC50 (CCRF-CEM) of the same compound?
Answer: > 50 µM

Question: What about the TGI (CCRF-CEM) of the same compound?
Answer: 2.79 µM

Question: And the GI50 [3]?
Answer: 1.01 µM

Question: And the TGI [3]?
Answer: 5.18 µM

Question: And the CC50 [3, 7]?
Answer: > 50 µM

Question: And the growth at 10 µM (SF-268)?
Answer: -46.3%

Question: And the GI50 (PC-3)?
Answer: 0.25 µM

Question: What about the IC50 (PC-3) of the same compound?
Answer: 0.25 µM

Question: What about the TGI (PC-3) of the same compound?
Answer: 2.07 µM

Question: What about the CC50 (PC-3; [7]) of the same compound?
Answer: > 50 µM

Question: What about the growth at 10 µM (RPMI-8226) of the same compound?
Answer: -11.7%

Question: And the growth at 10 µM (COLO 205)?
Answer: -98.7%

Question: What about the growth at 10 µM (MDA-MB-231 [4]) of the same compound?
Answer: -92%

Question: And the growth at 10 µM (SK-MEL-28)?
Answer: -28.9%

Question: What about the growth at 10 µM (OVCAR-5 [5]) of the same compound?
Answer: 16.3%

Question: And the GI50 (MOLT-4)?
Answer: 1.08 µM

Question: What about the TGI (MOLT-4) of the same compound?
Answer: 4.48 µM

Question: What about the CC50 (MOLT-4; [7]) of the same compound?
Answer: > 50 µM

Question: What about the GI50 (RXF 393) of the same compound?
Answer: 0.869 µM

Question: What about the LC50 (concentration killing 50% of cells) (RXF 393) of the same compound?
Answer: 4.9 µM

Question: And the TGI (RXF 393)?
Answer: 2.06 µM

Question: And the GI50 [6]?
Answer: 1.04 µM

Question: What about the TGI [6] of the same compound?
Answer: 3.68 µM

Question: And the CC50 [6, 7]?
Answer: > 50 µM

Question: What about the GI50 (NCI-H460) of the same compound?
Answer: 0.558 µM

Question: And the LC50 (NCI-H460)?
Answer: 16.3 µM

Question: What about the TGI (NCI-H460) of the same compound?
Answer: 1.87 µM

Question: What about the GI50 (MCF7) of the same compound?
Answer: 0.933 µM

Question: What about the LC50 (MCF7) of the same compound?
Answer: > 50 µM

Question: What about the TGI (MCF7) of the same compound?
Answer: 10.9 µM
